According to patent US20260078108A1, “SOLID FORMS OF A ROCK INHIBITOR” (REDX PHARMA PLC, priority 2022, published 2026):
Structures can show the parent of a compound that is named as a salt. Values belong to the molecule of their own block, whether it stands above or below them.

Legend:
Format in all cases: physicochemical
[1] = Longer term stability of HCl salt form II (HPLC, XRPD; 1 and 3 months)
Protocol: Samples were prepared in duplicate for each condition. At day 0 and at 1 month, and 3 months, the samples were analyzed by HPLC and XRPD to check the purity and crystal form, respectively.

[2] = 7-day stability testing of solid forms (HPLC purity, XRPD)
Protocol: About 10 mg of freebase Form I, HCl salt Form II, Succinate Form I and received HCl salt Form I were placed at 60° C./capped and 40° C./75% RH (open), respectively. Samples were prepared in duplicate for each condition. At day 0 and day 7, the samples were analyzed by HPLC and XRPD to check the purity and crystal form, respectively.

[3] = Solubility testing in water, SGF, FaSSIF, FeSSIF at 37° C.; details: for Solubility: 37° C.; for Solubility in SGF (in words): comparison with HCl Salt Form 1
Protocol: About 15 mg of sample was weighed into each sample vial and then 3.0 mL of water, simulated gastric fluid (SGF), Fasted State Simulated Intestinal Fluid (FaSSIF) or Fed State Simulated Intestinal Fluid (FeSSIF) media was added. Samples were prepared in triplicate for each media. The suspensions were kept shaking at 37° C. for up to 24 h. At 0.5, 2 and 24 h, suspensions were filtered and the filtrate was analyzed by HPLC.

[4] = 25° C.±2° C., 60% RH±5% RH, T1 month
[5] = 25° C.±2° C., 60% RH±5% RH, T3 month
[6] = 40° C.±2° C., 74% RH±5% RH, T1 month
[7] = 40° C.±2° C., 74% RH±5% RH, T3 month
[8] = FaSSIF (pH of media 6.5), 0.5 h
[9] = FeSSIF (pH of media 5.0), 0.5 h
[10] = pH of sample in FaSSIF (pH of media 6.5), 0.5 h
[11] = pH of sample in FaSSIF (pH of media 6.5), 2 h
[12] = pH of sample in FaSSIF (pH of media 6.5), 24 h
[13] = pH of sample in FeSSIF (pH of media 5.0), 0.5 h
[14] = pH of sample in FeSSIF (pH of media 5.0), 2 h
[15] = pH of sample in FeSSIF (pH of media 5.0), 24 h
[16] = pH of sample in SGF (pH of media 1.2), 0.5 h
[17] = pH of sample in SGF (pH of media 1.2), 2 h
[18] = pH of sample in SGF (pH of media 1.2), 24 h
[19] = pH of sample in Water (pH of media 7.9), 0.5 h
[20] = pH of sample in Water (pH of media 7.9), 2 h
[21] = pH of sample in Water (pH of media 7.9), 24 h

Assay by HPLC (water and solvent free)(area) ([1]; 25° C.±2° C., 60% RH±5% RH, T0): 101.6%
Polymorphism by XRPD ([1]; 25° C.±2° C., 60% RH±5% RH, T0): Form II
Total impurities by HPLC ([1]; 25° C.±2° C., 60% RH±5% RH, T0): impurities: 1.0%
Water Content ([1]; 25° C.±2° C., 60% RH±5% RH, T0): 1.8%
Assay by HPLC (water and solvent free)(area) [1, 4]: 101.4%
Polymorphism by XRPD [1, 4]: Form II
Total impurities by HPLC [1, 4]: impurities: 1.1%
Water Content [1, 4]: 1.6%
Assay by HPLC (water and solvent free)(area) [1, 5]: 101.2%
Polymorphism by XRPD [1, 5]: Form II
Total impurities by HPLC [1, 5]: impurities: 1.0%
Water Content [1, 5]: 1.4%
Assay by HPLC (water and solvent free)(area) ([1]; 40° C.±2° C., 74% RH±5% RH, T0): 101.6%
Polymorphism by XRPD ([1]; 40° C.±2° C., 74% RH±5% RH, T0): Form II
Total impurities by HPLC ([1]; 40° C.±2° C., 74% RH±5% RH, T0): impurities: 1.0%
Water Content ([1]; 40° C.±2° C., 74% RH±5% RH, T0): 1.8%
Assay by HPLC (water and solvent free)(area) [1, 6]: 101.4%
Polymorphism by XRPD [1, 6]: Form II
Total impurities by HPLC [1, 6]: impurities: 1.1%
Water Content [1, 6]: 1.5%
Assay by HPLC (water and solvent free)(area) [1, 7]: 101.4%
Polymorphism by XRPD [1, 7]: Form II
Total impurities by HPLC [1, 7]: impurities: 1.1%
Water Content [1, 7]: 1.5%
Purity (area %) ([2]; Day 0, HPLC, listed as HCI salt Form II): 98.65 area %
XRPD (crystal form) ([2]; Day 7, 40° C./75% RH (open)): No change
Purity (area %) ([2]; Day 7, 40° C./75% RH (open), HPLC, listed as HCI salt Form II): 98.48 area %
Decrease in purity versus Day 0 ([2]; Day 7, 40° C./75% RH (open), listed as HCI salt Form II): 0.2 area %
XRPD (crystal form) ([2]; Day 7, 60° C./capped): No change
Purity (area %) ([2]; Day 7, 60° C./capped, HPLC, listed as HCI salt Form II): 98.45 area %
Decrease in purity versus Day 0 ([2]; Day 7, 60° C./capped, listed as HCI salt Form II): 0.2 area %
Solubility [3, 8]: 19 µg/mL
Solubility ([3]; FaSSIF (pH of media 6.5), 2 h): 23 µg/mL
Solubility ([3]; FaSSIF (pH of media 6.5), 24 h): 6 µg/mL
Solubility [3, 9]: 64 µg/mL
Solubility ([3]; FeSSIF (pH of media 5.0), 2 h): 69 µg/mL
solubility at 24 h ([3]; Fed State Simulated Intestinal Fluid (FeSSIF), 37 °C, pH 5, fessif, thermodynamic from solid, FeSSIF (pH of media 5.0), 24 h): 57 µg/mL
Solubility ([3]; SGF (pH of media 1.2), 0.5 h): 2550 µg/mL
Solubility ([3]; SGF (pH of media 1.2), 2 h): 2591 µg/mL
Solubility ([3]; SGF (pH of media 1.2), 24 h): 3372 µg/mL
Solubility in SGF (in words) [3]: more soluble in SGF than HCl Salt Form 1
Solubility ([3]; Water (pH of media 7.9), 0.5 h): 716 µg/mL
Solubility ([3]; Water (pH of media 7.9), 2 h): 696 µg/mL
Solubility ([3]; Water (pH of media 7.9), 24 h): 919 µg/mL
pH [3, 10]: 6.4
pH [3, 11]: 6.4
pH [3, 12]: 6.4
pH [3, 13]: 4.9
pH [3, 14]: 4.9
pH [3, 15]: 4.9
pH [3, 16]: 1.2
pH [3, 17]: 1.4
pH [3, 18]: 1.4
pH [3, 19]: 4.9
pH [3, 20]: 4.8
pH [3, 21]: 6.0
SMILES: NCc1ccc(C(=O)Nc2ccncc2F)cc1-c1cccc(C(=O)Nc2ccc(SC[C@H]3CCOC3=O)cc2)c1 [HCl salt Form II]
Longer term stability (in words) ([1]; 25° C./60% RH and accelerated 40° C./75% RH): stable for up to 3 months even under accelerated conditions

Purity (area %) ([2]; Day 0, HPLC, listed as HCI salt Form I): 97.62 area %
XRPD (crystal form) ([2]; Day 7, 40° C./75% RH (open)): No change
Purity (area %) ([2]; Day 7, 40° C./75% RH (open), HPLC, listed as HCI salt Form I): 97.62 area %
XRPD (crystal form) ([2]; Day 7, 60° C./capped): No change
Purity (area %) ([2]; Day 7, 60° C./capped, HPLC, listed as HCI salt Form I): 97.61 area %
SMILES: NCc1ccc(C(=O)Nc2ccncc2F)cc1-c1cccc(C(=O)Nc2ccc(SC[C@H]3CCOC3=O)cc2)c1 [HCl salt Form I]

Purity (area %) ([2]; Day 0, HPLC): 97.46 area %
Decrease in purity versus Day 0 ([2]; Day 7, 40° C./75% RH (open)): 0.2 area %
XRPD (crystal form) ([2]; Day 7, 40° C./75% RH (open)): No change
Purity (area %) ([2]; Day 7, 40° C./75% RH (open), HPLC): 97.29 area %
Decrease in purity versus Day 0 ([2]; Day 7, 60° C./capped): 0.5 area %
XRPD (crystal form) ([2]; Day 7, 60° C./capped): No change
Purity (area %) ([2]; Day 7, 60° C./capped, HPLC): 96.98 area %
Solubility [3, 8]: 5 µg/mL
Solubility ([3]; FaSSIF (pH of media 6.5), 2 h): 2 µg/mL
Solubility ([3]; FaSSIF (pH of media 6.5), 24 h): 1 µg/mL
Solubility [3, 9]: 188 µg/mL
Solubility ([3]; FeSSIF (pH of media 5.0), 2 h): 173 µg/mL
Solubility ([3]; FeSSIF (pH of media 5.0), 24 h): 46 µg/mL
Solubility ([3]; SGF (pH of media 1.2), 0.5 h): 3837 µg/mL
Solubility ([3]; SGF (pH of media 1.2), 2 h): 3826 µg/mL
Solubility ([3]; SGF (pH of media 1.2), 24 h): 4005 µg/mL
Solubility in SGF (in words) [3]: more soluble in SGF than HCl Salt Form 1
Solubility ([3]; Water (pH of media 7.9), 2 h): 328 µg/mL
Solubility ([3]; Water (pH of media 7.9), 24 h): 546 µg/mL
pH [3, 10]: 5.7
pH [3, 11]: 5.7
pH [3, 12]: 5.6
pH [3, 13]: 4.8
pH [3, 14]: 4.8
pH [3, 15]: 4.8
pH [3, 16]: 1.3
pH [3, 17]: 1.4
pH [3, 18]: 1.3
pH [3, 19]: 4.3
pH [3, 20]: 4.2
pH [3, 21]: 4.1
solubility at 0.5 h ([3]; water, 37 °C, pH 7.9, water, thermodynamic from solid, Water (pH of media 7.9), 0.5 h): 363 µg/mL
SMILES: NCc1ccc(C(=O)Nc2ccncc2F)cc1-c1cccc(C(=O)Nc2ccc(SC[C@H]3CCOC3=O)cc2)c1 [Succinate Form I]
